Values of other authors as cited in the CATMoS acute toxicity set (Mansouri et al. 2021).
Where “and” joins values, the source holds several entries; their conditions need not be identical. Equal entries are not always repeated.

Test: rat acute oral toxicity
Conditions: in vivo
For `FC(F)(F)c1nc2c(Cl)cc(Cl)c(Cl)c2[nH]1`, the LD50 is listed as 6.33 mg/kg. For `CC[C@H]1[C@@H]2C[C@H]3[C@@H]4N(C)c5ccccc5[C@]45C[C@@H](C2[C@H]5O)N3[C@@H]1O` (stereo partly drawn), the LD50 is given as 360 mg/kg. For `O=C1CN2CCOC2(c2ccccc2F)c2cc(Br)ccc2N1` (stereo not drawn), the LD50 is given as 2860 mg/kg. For `Cc1cccc2sc(N)nc12`, the LD50 is listed as 500 mg/kg. In the case of `CCCCOc1ccc(OCC(=O)N(CCN(CC)CC)c2cc(OCC)ccc2OCC)cc1`, the LD50 is given as 2400 mg/kg. For `FC(F)(F)c1ccc(Cl)cc1`, the LD50 is given as 13000 mg/kg. In the case of `CNC(=O)ON=C1CSCCSC1`, the LD50 is listed as 400 mg/kg. In the case of `CCCOC(=O)C1c2cc3c(cc2CC(C)C1C(=O)OCCC)OCO3` (stereo not drawn), the LD50 is given as 1500 mg/kg. For `CC(C)CCOC(CO)CC(C)C` (stereo not drawn), the LD50 is given as 5410 mg/kg. In the case of `CCOC(=O)C(c1c(O)c2ccccc2oc1=O)c1c(O)c2ccccc2oc1=O`, the LD50 is listed as 840 mg/kg. In the case of `O=C(CO)Nc1ccccc1`, the LD50 is listed as 1700 mg/kg. For `CN(C)C(=O)CCCOC(=O)C(C)(C)Oc1ccc(Cl)cc1`, the LD50 is listed as 2480 mg/kg. For `ClC(Cl)(Cl)CC1CO1` (stereo not drawn), the LD50 is listed as 1500 mg/kg. In the case of `CC(C)CC(C)CC(=O)O` (stereo not drawn), the LD50 is listed as 900 mg/kg. For `COC1CC(=C(c2cccs2)c2cccs2)C[N+](C)(C)C1` (stereo not drawn), the LD50 is given as 1210 mg/kg. For `CN(C)S(=O)(=O)CCCCNC(=O)N(CCCl)N=O`, the LD50 is listed as 250 mg/kg. For `O=C(O)c1cccc2c(Cl)ccc(C(=O)O)c12`, the LD50 is listed as 3500 mg/kg. In the case of `O=P1(N(CCCl)CCCl)NCCCO1` (stereo not drawn), the LD50 is listed as 94 mg/kg. For `CC1=NN(c2ccccc2)C(=O)C1`, the LD50 is given as 1920 mg/kg. For `COc1cc(N)c(C)cc1N(C)C`, the LD50 is given as 29.7 mg/kg. For `Cc1c(-c2c(C)c(N)c3c(C(C)C)c(O)c(O)c(C=O)c3c2O)c(O)c2c(C=O)c(O)c(O)c(C(C)C)c2c1N`, the LD50 is given as 3270 mg/kg. For `OCCCS`, the LD50 is given as 116 mg/kg. For `S=P(OCCCl)(OCCCl)OCCCl`, the LD50 is given as 820 mg/kg. In the case of `CN=C(O)O/N=C1/SC(C)OC1C` (stereo not drawn), the LD50 is listed as 4.5 mg/kg. In the case of `CCC(C)C(C(=O)OC1CC[N+](C)(C)CC1)c1ccccc1` (stereo not drawn), the LD50 is listed as 720 mg/kg. For `CCN(Cc1ccncc1)N=O`, the LD50 is listed as 40 mg/kg. In the case of `CC(=O)OCCCc1ccccc1`, the LD50 is listed as 4700 mg/kg. For `O=C(O)C1CCc2cc(C3CCCCC3)c(Cl)cc21` (stereo not drawn), the LD50 is given as 41 mg/kg and 35 mg/kg. For `CN(c1nc2ccccc2s1)C1CCN(CCCCOc2ccc(F)cc2)CC1`, the LD50 is given as 154 mg/kg. In the case of `OC[C@@H](O)[C@@H](O[C@@H]1O[C@H](CO)[C@H](O)[C@H](O)[C@H]1O)[C@H](O)[C@@H](O)CO`, the LD50 is given as 30000 mg/kg and 27500 mg/kg. In the case of `CCOC(C1=NCC(C)(C)N1)c1ccccc1` (stereo not drawn), the LD50 is given as 510 mg/kg. In the case of `CON(C)C(=O)CC(SP(=S)(OC)OC)C(=O)N(C)OC` (stereo not drawn), the LD50 is listed as 14 mg/kg. In the case of `Cn1cc(C(O)=Nc2cccc3c2C2CCC3C2=C(Cl)Cl)c(C(F)F)n1` (stereo not drawn), the LD50 is given as 55 mg/kg. For `COc1cc(C)c2[nH]c(=O)sc2c1`, the LD50 is given as 7580 mg/kg. In the case of `Cc1ccccc1C1OCC(O)CO1` (mixture of isomers), the LD50 is given as 3400 mg/kg. For `CN1CCCC(CC2c3ccccc3Sc3ccccc32)C1` (stereo not drawn), the LD50 is given as 1460 mg/kg. In the case of `CCN(CC)CCN(CCN(CC)CC)n1cc(-c2ccc(Cl)cc2)c2cc(Cl)ccc21`, the LD50 is listed as 780 mg/kg. In the case of `Nc1cccc2c3c([nH]c12)CCCC3`, the LD50 is listed as 1380 mg/kg. For `CNC(=O)Oc1cccc(N=CN(C)C)c1`, the LD50 is given as 20 mg/kg. For `C=C(OP(=O)(OC)OC)P(=O)(OC)OC`, the LD50 is given as 287 mg/kg. In the case of `COC=CC=C(C#N)C#N`, the LD50 is listed as 200 mg/kg. In the case of `Ic1nc(I)c(I)[nH]1`, the LD50 is listed as 278 mg/kg. For `C=C(C)C(=O)Nc1ccc(Cl)c(Cl)c1`, the LD50 is given as 1800 mg/kg. For `c1ccc2c(c1)CCCC2`, the LD50 is given as 2860 mg/kg. For `Nc1cc(-c2ccncc2)c[nH]c1=O`, the LD50 is given as 102 mg/kg. In the case of `COc1cc2nc(N3CCN(C(=O)OCC4CC4)CC3)nc(N)c2cc1OC`, the LD50 is listed as 1150 mg/kg. In the case of `CC=CC(=O)OC(C=CC)OC(=O)C=CC` (stereo not drawn), the LD50 is given as 2590 mg/kg. In the case of `O=NN1CCSC1`, the LD50 is given as 1950 mg/kg. For `CCN(CC)CC#N`, the LD50 is listed as 160 mg/kg. For `CCOC(=O)C1=CN(C(=O)c2ccccc2)C2CCCC(C)N2C1=O` (stereo not drawn), the LD50 is listed as 1640 mg/kg. In the case of `COP(=S)(OC)SCn1nc(Cl)ccc1=O`, the LD50 is given as 5 mg/kg. For `C[N+](C)(C)CCOC(N)=O`, the LD50 is given as 40 mg/kg. For `O=C(O)c1c(Cl)ccc(Cl)c1O`, the LD50 is given as 1560 mg/kg. For `Cc1cc(O)c(C(C)(C)C)cc1C`, the LD50 is listed as 1030 mg/kg. In the case of `CC(C)(C)c1cc(C2C(=O)c3ccccc3C2=O)cc(C(C)(C)C)c1`, the LD50 is listed as 194 mg/kg. For `C[C@H](N)[C@H](O)c1ccccc1`, the LD50 is given as 1540 mg/kg. For `COc1ccc(C[C@H]2NC[C@H](O)[C@H]2OC(C)=O)cc1`, the LD50 is listed as 72 mg/kg. In the case of `C[C@H](NCCc1ccc(O)cc1)[C@H](O)c1ccc(O)cc1`, the LD50 is given as 1840 mg/kg. In the case of `O=C(CF)Nc1ccc(F)cc1`, the LD50 is given as 2 mg/kg. For `c1ccc(C2(c3ccccc3)COC(c3ccccc3)(C3CCCCN3)OC2)cc1` (stereo not drawn), the LD50 is listed as 300 mg/kg. In the case of `c1ccc([Se]c2ccccc2)cc1`, the LD50 is given as 360 mg/kg. In the case of `CC(C)(C)C(=O)CCc1ccc(Cl)cc1`, the LD50 is given as 3140 mg/kg. For `C=CCC(CC=C)C(=O)O`, the LD50 is given as 570 mg/kg. For `O=C1C2=C(CCCC2)C(=O)N1c1ccc(Cl)cc1`, the LD50 is given as 24000 mg/kg. In the case of `CCCCCCCCc1ccc(C(C[n+]2ccccc2)OCCCC)cc1` (stereo not drawn), the LD50 is listed as 250 mg/kg. In the case of `Cc1nc(C)c(Cl)c(O)c1Cl`, the LD50 is listed as 18000 mg/kg. In the case of `CCCCCCCCCCCCCCCCCC[N+](C)(C)Cc1ccccc1`, the LD50 is listed as 1250 mg/kg. In the case of `Cc1c(N(C)CS(=O)(=O)O)c(=O)n(-c2ccccc2)n1C`, the LD50 is given as 3000 mg/kg. For `Clc1ccc(CO/N=C(\Cn2ccnc2)c2ccc(Cl)cc2Cl)c(Cl)c1`, the LD50 is given as 2460 mg/kg. In the case of `CC(C1=C(CCN(C)C)Cc2ccccc21)c1ccccn1` (stereo not drawn), the LD50 is given as 618 mg/kg. For `NC(=O)OCC(O)COc1ccc(Cl)cc1` (stereo not drawn), the LD50 is listed as 744 mg/kg. In the case of `CN(C)C=Nc1c(I)cc(I)c(CCC(=O)O)c1I`, the LD50 is given as 2500 mg/kg and 1030 mg/kg. For `CCCCCCCCCC=CC(=O)OC(=O)C=CCCCCCCCCC`, the LD50 is listed as 3800 mg/kg. For `[N-]=[N+]=NC1CCCCC1=NO` (stereo not drawn), the LD50 is listed as 1120 mg/kg. For `CCCCCCCCOC(C[n+]1ccccc1)c1ccc(C2CCCCC2)cc1` (stereo not drawn), the LD50 is listed as 250 mg/kg. For `C=CC#CC(C)(C)O`, the LD50 is given as 600 mg/kg. In the case of `CC(C)C12CCC(C)(CC1)O2`, the LD50 is listed as 3100 mg/kg. In the case of `CC(CO)CCO` (stereo not drawn), the LD50 is given as 5460 mg/kg. For `OC1OCC2C1C1(Cl)C(Cl)=C(Cl)C2(Cl)C1(Cl)Cl` (stereo not drawn), the LD50 is listed as 1750 mg/kg. For `O=c1[nH]c2c(Cl)c(Cl)c(Cl)cc2o1`, the LD50 is listed as 1000 mg/kg. In the case of `ClCC[N+]1(CCCCCC[N+]2(CCCl)CCCO2)CCCO1` (stereo not drawn), the LD50 is listed as 30 mg/kg. In the case of `CN(C)c1ccc(Cn2cnc3c2c(=O)n(C)c(=O)n3C)cc1`, the LD50 is given as 1100 mg/kg. For `C=CCOC(=O)C=Cc1ccccc1`, the LD50 is listed as 1520 mg/kg. In the case of `N[C@@H]1C[C@H]1c1ccc(F)c(F)c1`, the LD50 is listed as 50 mg/kg. For `CC(C)(C(N)=O)c1ccccc1`, the LD50 is given as 1650 mg/kg. In the case of `COc1ccc(C(=O)CCC(=O)O)c2ccoc12`, the LD50 is given as 1230 mg/kg. For `CC1(C)[C@@H](OC(=O)CCC(=O)O)CC[C@]2(C)[C@H]3C(=O)C=C4[C@@H]5C[C@@](C)(C(=O)O)CC[C@]5(C)CC[C@@]4(C)[C@]3(C)CC[C@@H]12`, the LD50 is given as 2450 mg/kg. In the case of `C[C@H]1[C@H](c2ccccc2)OCCN1C`, the LD50 is listed as 455 mg/kg. In the case of `CCCC=C(CC)[N+](=O)[O-]`, the LD50 is listed as 620 mg/kg. In the case of `c1coc(OCC2CO2)c1` (stereo not drawn), the LD50 is listed as 1100 mg/kg. For `CCCCN(C)N=O`, the LD50 is listed as 130 mg/kg. For `CC(C)=CCCC(C)CCO` (stereo not drawn), the LD50 is given as 3450 mg/kg. For `CCOC(=O)NS(=O)(=O)c1ccc(Cl)cc1`, the LD50 is given as 380 mg/kg. In the case of `CC(CN(C)C)CN1c2ccccc2OCOc2ccc(Cl)cc21` (stereo not drawn), the LD50 is given as 600 mg/kg. For `CC(=O)OCC1=CC[C@@H]2C[C@H]1C2(C)C`, the LD50 is listed as 2600 mg/kg. In the case of `COP(=S)(OC)SCc1ccc(SP(=S)(OC)OC)cc1`, the LD50 is listed as 265 mg/kg. For `COc1ccc2c3c1O[C@H]1[C@@H](OC(=O)c4cccnc4)C=C[C@H]4[C@@H](C2)N(C)CC[C@@]341`, the LD50 is listed as 840 mg/kg. In the case of `O=S(=O)(c1cccc2cnccc12)N1CCCNCC1`, the LD50 is listed as 335 mg/kg. For `CC(C)C(Br)C(=O)OC(C)C(Cl)(Cl)Cl` (stereo not drawn), the LD50 is given as 1200 mg/kg. In the case of `CSc1ccc(O)cc1C`, the LD50 is listed as 3400 mg/kg. In the case of `CNC(=O)Oc1ccccc1C1CCCC1`, the LD50 is given as 187 mg/kg. For `CCOC(=O)N(Cc1ccccc1)C1CC1`, the LD50 is given as 1380 mg/kg. In the case of `COP(=O)(CCC(=O)NCO)OC`, the LD50 is listed as 13000 mg/kg.
